{"source": "patent US20040235942A1", "about": "(priority 2003, published 2004)", "key": {"[1]": {"tested_on": "patients with idiopathic venous thromboembolism", "assay": "PREVENT trial: recurrent venous thromboembolism", "type": "in vivo, human", "text": "(§1) All participants were followed for recurrent VTE, major bleeding events, and all-cause mortality.\n(§2) All index events were confirmed by objective criteria at the central Clinical Coordinating Center based upon venography, compression ultrasound or MRI reports (for deep vein thrombosis) or by ventilation/perfusion scans, angiograms, or chest computed tomography scans (for pulmonary embolism). Idiopathic events were defined as those not occurring within 90 days of surgery, trauma, or a diagnosis of metastatic cancer. […] Every patient gave written informed consent and the study protocol was approved by each institutional review board.\nThe run-in phase was also used to exclude individuals with less than 80 percent compliance.\n(§3) Randomization was stratified by clinical site, time since index event (≦6 months, >6 months) and by whether the index event was the patient's first ever VTE. All participants were then followed with office visits once every two months that included blinded INR evaluations and dose adjustments. To further ensure blinding, sham dose adjustments were made in the placebo group.\n(§4) As PREVENT was specifically designed to evaluate clinically relevant recurrent thromboembolic events, no surveillance for asymptomatic thrombosis was undertaken. Rather, at each visit the occurrence of any incident clinical events since the last visit two months earlier was evaluated. All endpoints were reviewed by a committee of physicians unaware of study drug assignment. The endpoint of recurrent deep vein thrombosis was confirmed if there was a positive venography study, doppler compression ultrasound, or MRI. Events documented by clinical diagnosis alone were not confirmed. […] Major hemorrhage was defined as any bleeding episode that led either to hospitalization or transfusion.\nComparisons between the warfarin and placebo groups in the distributions of continuous variables used Wilcoxon rank sum tests; for categorical variables, comparisons used Chi-square tests. The primary analysis was an intention-to-treat comparison of the difference between time to first confirmed recurrent VTE after randomization in the two treatment arms using a two-sided log-rank test. The method of Kaplan and Meier was used to estimate the probability of recurrence by time within treatment groups. Estimation of the number of patients needed to treat (NNT) to prevent one recurrent event was based on rates at one year. We used the proportional hazards model for estimation of the relative hazard of recurrent VTE associated with low-intensity warfarin treatment and obtained confidence intervals from this model. The hypothesis of a varying effect of treatment over time was tested in a proportional hazards model including an interaction of treatment with time. Tests and estimates of treatment effects on the composite endpoint used the same methods.\nThe primary pre-specified subgroup analysis evaluated the effect of treatment separately in persons with and without either factor V Leiden or the prothrombin mutation. The hypothesis of a different effect of treatment by genetic status was tested in a proportional hazards model including the interaction of treatment with the presence of either factor V Leiden or G20210A prothrombin mutation. Other descriptive comparisons within subgroups used the same methods."}, "[2]": {"tested_on": "International Normalized Ratio", "assay": "PREVENT trial: blinded INR evaluation (CoaguChek fingerstick)", "type": "in vivo, human", "conditions": "during follow-up; interquartile range 1.4 to 2.0", "text": "During the run-in, at randomization, and throughout follow-up, all INR assessments at each study site were made using specially designed fingerstick devices with an identical thromboplastin [International Sensitivity Index 2.0] (CoaguChek, Roche Diagnostics, Indianapolis, Ind.). These devices were altered electronically to provide a coded study value which was transmitted to the Data Coordinating Center. All dose adjustments were made in a blinded manner using a simple clinical algorithm (Appendix A).\nas §3"}, "[3]": {"tested_on": "factor VII activity and prothrombin fragment F1+2", "conditions": "in vivo; cited from earlier work"}, "[4]": {"tested_on": "patients with idiopathic venous thromboembolism", "assay": "PREVENT trial: bleeding, mortality, stroke, cancer, myocardial infarction, drug discontinuation", "type": "in vivo, human", "text": "as §1, §2, §3, §4\n(§5) As an index of net clinical benefit, we defined on an a priori basis a composite endpoint of recurrent VTE, major hemorrhage, and all-cause mortality. Incident stroke events were also monitored. These were classified as hemorrhagic or thromboembolic on the basis of clinical records or CT/MRI scanning which were available for all episodes. To avoid double-counting, hemorrhagic strokes were considered as major hemorrhages in analyses using the combined endpoint of recurrent thrombosis, major hemorrhage, and all-cause mortality.\nThe method of Kaplan and Meier was used to estimate the probability of recurrence by time within treatment groups. Estimation of the number of patients needed to treat (NNT) to prevent one recurrent event was based on rates at one year. […] The hypothesis of a varying effect of treatment over time was tested in a proportional hazards model including an interaction of treatment with time. Tests and estimates of treatment effects on the composite endpoint used the same methods."}, "[5]": {"tested_on": "patients with idiopathic venous thromboembolism", "assay": "PREVENT trial: composite endpoint of recurrent VTE, major hemorrhage and all-cause mortality", "type": "in vivo, human", "text": "as §1, §5\nComparisons between the warfarin and placebo groups in the distributions of continuous variables used Wilcoxon rank sum tests; for categorical variables, comparisons used Chi-square tests. The primary analysis was an intention-to-treat comparison of the difference between time to first confirmed recurrent VTE after randomization in the two treatment arms using a two-sided log-rank test. The method of Kaplan and Meier was used to estimate the probability of recurrence by time within treatment groups. Estimation of the number of patients needed to treat (NNT) to prevent one recurrent event was based on rates at one year. […]"}, "[6]": {"conditions": "requires twice daily dosing; cited from earlier work"}}, "data": [{"smiles": "CC(=O)CC(c1ccccc1)c1c(O)c2ccccc2oc1=O", "note": "(centres unmarked) [low-intensity warfarin, warfarin]", "values": [{"measurement": "reduction in risk of recurrent VTE", "setting": "[1]; analysis by use or non-use of long-term anticoagulation at the time of the recurrent event", "value": 81, "unit": "%"}, {"measurement": "participants with recurrent VTE after cessation of study drug", "setting": "[1]; in vivo", "value": 7}, {"measurement": "Recurrent VTE, Rate", "setting": "[1]; intention-to-treat", "value": "2.6 events per 100 person years"}, {"measurement": "reduction in risk of recurrent VTE", "setting": "[1]; men", "value": 53, "unit": "%"}, {"measurement": "Recurrent VTE, Rate", "setting": "[1]; subgroup: Factor V Leiden or Prothrombin Mutation absent", "value": "2.7 events per 100 person years"}, {"measurement": "Recurrent VTE, Rate", "setting": "[1]; subgroup: Factor V Leiden or Prothrombin Mutation present", "value": "2.2 events per 100 person years"}, {"measurement": "Recurrent VTE, Rate", "setting": "[1]; subgroup: age 30-44 years", "value": "3.3 events per 100 person years"}, {"measurement": "Recurrent VTE, Rate", "setting": "[1]; subgroup: age 45-64 years", "value": "1.7 events per 100 person years"}, {"measurement": "Recurrent VTE, Rate", "setting": "[1]; subgroup: age 65-89 years", "value": "3.9 events per 100 person years"}, {"measurement": "Recurrent VTE, Rate", "setting": "[1]; subgroup: men", "value": "4.0 events per 100 person years"}, {"measurement": "Recurrent VTE, Rate", "setting": "[1]; subgroup: women", "value": "1.1 events per 100 person years"}, {"measurement": "risk reduction of recurrent VTE", "setting": "[1]; those without factor V Leiden or the prothrombin mutation", "value": 58, "unit": "%"}, {"measurement": "Recurrent VTE, Rate", "setting": "[1]; time after randomization >1 year", "value": "2.5 events per 100 person years"}, {"measurement": "Recurrent VTE, Rate", "setting": "[1]; time after randomization ≦1 year", "value": "2.7 events per 100 person years"}, {"measurement": "patients needed to be treated to prevent one recurrent event", "setting": "[1]; treated for one year, based on rates at one year", "value": 14, "unit": "patients"}, {"measurement": "risk reduction of recurrent VTE", "setting": "[1]; versus placebo, intention-to-treat", "value": 64, "unit": "%"}, {"measurement": "reduction in risk of recurrent VTE", "setting": "[1]; women", "value": 80, "unit": "%"}, {"measurement": "median INR", "setting": "[2]", "value": 1.7}, {"measurement": "reducing biochemical markers of coagulation such as factor VII activity and levels of prothrombin fragment F1+2", "setting": "[3]", "value": "effective"}, {"measurement": "Cancer, Rate", "setting": "[4]; in vivo", "value": "0.7 events per 100 person years"}, {"measurement": "Deaths, Rate", "setting": "[4]; in vivo", "value": "0.7 events per 100 person years"}, {"measurement": "Major bleeding, Rate", "setting": "[4]; in vivo", "value": "0.9 events per 100 person years"}, {"measurement": "Myocardial Infarction, Rate", "setting": "[4]; in vivo", "value": "0.5 events per 100 person years"}, {"measurement": "confirmed strokes", "setting": "[4]; in vivo", "value": 1}, {"measurement": "patients in whom study drug was discontinued before completion of follow-up", "setting": "[4]; in vivo", "value": 62, "unit": "patients"}, {"measurement": "major bleeds that were gastrointestinal", "setting": "[4]; of 5 major bleeds", "value": 3}, {"measurement": "major bleeds that were hematuria in the setting of renal calculus removal", "setting": "[4]; of 5 major bleeds", "value": 1}, {"measurement": "major bleeds that were lower-extremity hematoma", "setting": "[4]; of 5 major bleeds", "value": 1}, {"measurement": "major hemorrhage requiring transfusion of packed red blood cells", "setting": "[4]; patient was receiving full-dose warfarin at the time of the bleed", "value": 1}, {"measurement": "Composite Endpoint, Rate", "setting": "[5]; first VTE, major bleed, or death", "value": "4.1 events per 100 person years"}, {"measurement": "reduction in composite study endpoint of recurrent VTE, major hemorrhage, or death", "setting": "[5]; versus placebo", "value": 48, "unit": "%"}]}, {"smiles": "CCOC(=O)CN[C@@H](C(=O)N1CC[C@H]1C(=O)NCc1ccc(/C(N)=N\\O)cc1)C1CCCCC1", "note": "[ximelagatran]", "values": [{"measurement": "half-life", "setting": "[6]", "value": "relatively short"}]}]}
